Test in all cases: relative viability (nuclei count vs DMSO), 5 days (fraction); higher = more cells survive
Compound in experiment [1]: O=C(NC1CCNCC1)c1n[nH]cc1NC(=O)c1c(Cl)cccc1Cl [AT-7519] + C[C@@H](Oc1cc(-c2cnn(C3CCNCC3)c2)cnc1N)c1c(Cl)ccc(F)c1Cl [Crizotinib] (partner 1 µM)
In short, it runs like this:
(§1)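 Relative viability is defined as nuclei in treated wells over nuclei in vehicle wells. Duplicate plates were run and medians reported. Lung cancer cell lines in 1536-well plates were dosed by pin tool one day after seeding, with one drug or with a fixed anchor-drug dose plus five library-drug doses (not always all listed) in √10 steps, and nuclei were counted after 5 days.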

Compound in experiment [2]: O=C(NC1CCNCC1)c1n[nH]cc1NC(=O)c1c(Cl)cccc1Cl [AT-7519] + COc1cc2c(Oc3ccc(NC(=O)C4(C(=O)Nc5ccc(F)cc5)CC4)cc3F)ccnc2cc1OCCCN1CCOCC1 [Foretinib] (partner 0.25 µM)
In short, it runs like this: as §1

Compound in experiment [3]: C1=CC2=C(C=C(C(=C2N=C1)O)N=NC3=CC4=C(C=C3)C=C(C=C4)S(=O)(=O)O)S(=O)(=O)O + NC(=O)Nc1cc(-c2cccc(F)c2)sc1C(=O)N[C@H]1CCCNC1 [AZD7762] (partner 0.2 µM)
Summed up: as §1

Compound in experiment [4]: C1=CC2=C(C=C(C(=C2N=C1)O)N=NC3=CC4=C(C=C3)C=C(C=C4)S(=O)(=O)O)S(=O)(=O)O + O=C(c1cc(Cc2n[nH]c(=O)c3ccccc23)ccc1F)N1CCN(C(=O)C2CC2)CC1 [Olaparib] (partner 8 µM)
In short, it runs like this: as §1

Consider PC-14, for which the relative viability was found to be 0.755 in experiment [1] (first compound 0.01 µM); 0.911 in experiment [1] (first compound 0.03162 µM); 0.818 in experiment [1] (first compound 0.3162 µM); 0.811 in experiment [1] (first compound 1 µM); 0.889 in experiment [2] (first compound 0.01 µM); 0.856 in experiment [2] (first compound 0.03162 µM). Besides, the relative viability came out at 0.928 in experiment [2] (first compound 0.3162 µM); 0.915 in experiment [2] (first compound 1 µM); 0.353 in experiment [3] (first compound 0.08 µM); 0.294 in experiment [3] (first compound 0.253 µM); 0.305 in experiment [3] (first compound 0.8 µM); 0.375 in experiment [3] (first compound 2.53 µM). The relative viability in experiment [3] (first compound 8 µM) amounted to 0.328; in experiment [4] (first compound 0.08 µM) it was 0.249; in experiment [4] (first compound 0.253 µM) it was 0.275; in experiment [4] (first compound 0.8 µM) it was 0.29; in experiment [4] (first compound 2.53 µM), 0.272; in experiment [4] (first compound 8 µM) it was 0.246.

With RERF-LC-KJ, the relative viability in experiment [1] (first compound 0.01 µM) stood at 0.802; in experiment [1] (first compound 0.03162 µM), 0.738; in experiment [1] (first compound 0.3162 µM), 0.963; in experiment [1] (first compound 1 µM) it was 0.806; in experiment [2] (first compound 0.01 µM), 0.939; in experiment [2] (first compound 0.03162 µM), 0.813. The relative viability is 0.879 in experiment [2] (first compound 0.3162 µM); 0.921 in experiment [2] (first compound 1 µM); 0.945 in experiment [3] (first compound 0.08 µM); 0.949 in experiment [3] (first compound 0.253 µM); 0.924 in experiment [3] (first compound 0.8 µM); 1.03 in experiment [3] (first compound 2.53 µM). In addition, the relative viability in experiment [3] (first compound 8 µM) was 0.552; in experiment [4] (first compound 0.08 µM), 0.889; in experiment [4] (first compound 0.253 µM) it was 0.964; in experiment [4] (first compound 0.8 µM), 0.987; in experiment [4] (first compound 2.53 µM), 0.959; in experiment [4] (first compound 8 µM), 1.02.

Source of the values: the supplement of paper PMC10307832.
